# Data taken from patent US10034886B2, “GLP-1 receptor modulators” (Celgene International II SÀRL, priority 2014, dated 2018).
# Molecular target: T1, GLP-1R (Homo sapiens, UniProt P43220)
# T1 construct: host or cells: GLP-1R CRE-bla CHO-K1 cells
# Assay: EC20 GLP-1(9-36) PAM cAMP assay: dose response of compound in the presence of fixed concentration of GLP-1(9-36)
# Assay type: cell-based
# Details: GLP-1R CRE-bla CHO-K1 cells, compound dose response with fixed concentration of GLP-1(9-36), read-out: EC20 GLP-1(9-36) PAM EC50
# Method: EC20 GLP-1(9-36) PAM cAMP Assay: Dose Response of Compound in the Presence of Fixed Concentration of GLP-1 (9-36).
# GLP-1R CRE-bla CHO-K1 cells cultured in growth medium (DMEM-High glucose, 10% dialyzed FBS, 0.1 mM NEAA, 25 mM Hepes, 100 U/mL penicillin/100 μg/mL streptomycin, 5 μg/mL Blasticidin, 600 μg/mL Hygromycin) were trypsinized and plated in suspension into 384 well white flat bottom plates at 5000 cells/well in 12 μL assay buffer (Hanks Balanced Salt solution, 10 mM hepes, 0.1% BSA, pH 7.4). A 5× compound dose response curve (12-point) was generated in assay buffer containing 1.5 mM IBMX, 4% DMSO. GLP-1(9-36) was diluted to 4.2 μM in assay buffer containing 1.5 mM IMBX and 4% DMSO. The 5× compound dose response was added (3 μL), followed by 0.5 μL of GLP-1(9-36) and cells were incubated for 30 min at 37° C. Direct detection of cAMP was carried out using DiscoveRx HitHunter cAMP kit according to manufacturer's instructions and luminescence was read using a SpectraMax M5 plate reader. Luminescence was converted to total cAMP using a cAMP standard curve and data was analyzed by non-linear regression to determine the EC50 and Emax.
# GLP-1(7-36): […]-NH2 (SEQ ID NO: 2). GLP-1(9-36): […]-NH2 (SEQ ID NO: 3). GLP-1(7-36) was purchased from GenScript. GLP-1(9-36) was purchased from Biopeptide Co., Inc.
# The EC20GLP-1(9-36) PAM Activity range is denoted as follows: + denotes activity <0.8 μM, ++ denotes activity between 0.8 and 2.5 μM, +++ denotes activity between 2.5 and 5 μM, and ++++ denotes activity 5 to 10 μM.
# T1 sequence (P43220 24-463): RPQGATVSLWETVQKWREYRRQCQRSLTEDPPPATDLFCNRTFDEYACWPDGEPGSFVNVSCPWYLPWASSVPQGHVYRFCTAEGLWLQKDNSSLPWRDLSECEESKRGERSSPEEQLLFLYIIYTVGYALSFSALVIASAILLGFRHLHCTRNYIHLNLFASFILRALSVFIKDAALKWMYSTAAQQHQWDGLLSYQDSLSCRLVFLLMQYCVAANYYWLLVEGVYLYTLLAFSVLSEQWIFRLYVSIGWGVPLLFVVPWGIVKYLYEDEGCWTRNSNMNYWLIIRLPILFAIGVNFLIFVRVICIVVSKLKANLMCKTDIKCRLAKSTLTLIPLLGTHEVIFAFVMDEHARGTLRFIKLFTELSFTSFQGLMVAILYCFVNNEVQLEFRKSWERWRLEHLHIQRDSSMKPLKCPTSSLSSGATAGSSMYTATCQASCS
# T1 sequence (P01275 100-127 partner limits assumed): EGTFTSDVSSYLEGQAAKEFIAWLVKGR
row,SMILES,EC50 [nM]
1,CC[C@H]1CC[C@H](c2ccc(-c3cnc(-c4ccc(C[C@H](NC(=O)c5ccc(C(C)(C)C)s5)C(=O)N5CC(C(=O)O)C5)cc4)nn3)cc2)CC1 [Compound 1337],< 800
2,CC[C@H]1CC[C@H](c2ccc(-c3cnc(-c4ccc(C[C@H](NC(=O)c5ccc(C(C)(C)C)s5)C(=O)N[C@@H](CO)C(=O)O)cc4)nc3)cc2)CC1 [Compound 1326],< 800
3,CCCc1ccc(N2CCN(c3cnc(-c4ccc(CC(NC(=O)c5ccc(C(C)(C)C)s5)C(=O)N5CC(C(=O)O)C5)cc4)nc3)C(=O)C2)cc1 (racemic) [Compound 1411],800 to 2500
4,CC1(C)CCC(c2ccc(-c3cnc(-c4ccc(C[C@H](NC(=O)c5ccc(C(C)(C)C)s5)C(=O)O)cc4)nc3)cc2)CC1 [Compound 1344],800 to 2500
5,C[C@@H](NC(=O)[C@H](Cc1ccc(-c2ncc(-c3ccc(N4CCCC4)cc3)cn2)cc1)NC(=O)c1ccc(C(C)(C)C)s1)C(=O)O [Compound 1300],800 to 2500
6,CCCCCCCOc1ccc(-c2nnc(-c3ccc(C[C@@H](NC(=O)c4ccc(C(C)(C)C)cc4)C(=O)N4CC(C(=O)O)C4)cc3F)s2)cc1 [Compound 1553],800 to 2500
7,CC[C@H]1CC[C@H](c2ccc(-c3ccc(-c4ccc(C[C@H](NC(=O)c5ccc(C(C)(C)C)s5)C(=O)N5CC(C(=O)O)C5)cc4)nc3)cc2)CC1 [Compound 1334],< 800
8,CCCCOc1ccc(C(=O)N[C@@H](Cc2ccc(-c3ncc(-c4ccc(OCCCC(C)C)cc4)cn3)cc2)C(=O)N2CC(C(=O)O)C2)cc1 [Compound 1243],800 to 2500
9,CC[C@H]1CC[C@H](c2ccc(-c3cnc(-c4ccc(C[C@H](NC(=O)c5ccc(C(C)C)s5)C(=O)O)cc4)nc3)cc2)CC1 [Compound 1389],< 800
10,CCC[C@H]1CC[C@H](C2CCN(c3cnc(-c4ccc(C[C@H](NC(=O)c5ccc(CC(C)C)s5)C(=O)N5CC(C(=O)O)C5)cc4)nc3)CC2)CC1 [Compound 1522],< 800
11,CCC[C@H]1CC[C@H](C2CCN(c3cnc(-c4ccc(C[C@H](NC(=O)c5ccc(C(C)(C)C#N)s5)C(=O)N5CC(C(=O)O)C5)cc4)nc3)CC2)CC1 [Compound 1513],< 800
12,CC(C)C1CCN(c2cnc(-c3ccc(CC(NC(=O)c4ccc(C(C)(C)C)s4)C(=O)N4CC(C(=O)O)C4)cc3)nc2)CC1 (centres unmarked) [Compound 1422],800 to 2500

# Same assay, conditions: dose response of compound in presence of fixed concentration of GLP-1(9-36), GLP-1R CRE-bla CHO-K1 cells, read-out: EC20 GLP-1(9-36) PAM EC50
row,SMILES,EC50 [nM]
1,CCCCCCCOc1ccc(-c2cnc(-c3ccc(C[C@H](NC(=O)c4ccc(C(C)(C)C)s4)C(=O)NC(C(=O)O)C(O)C(C)C)cc3)nc2)cc1 (some centres unmarked) [Compound 880],< 800
2,CCCCCCCOc1ccc(-c2cnc(-c3ccc(C[C@H](NC(=O)c4ccc(C(C)(C)C)s4)C(=O)NCC4(C(=O)OC)CCNCC4)cc3)nc2)cc1 [Compound 605],< 800
3,CCCCCCCOc1ccc(-c2cnc(-c3ccc(C[C@H](NC(=O)c4ccc(C(C)(C)C)cc4)C(=O)N[C@@H](CO)C(=O)O)cc3)nc2)cc1 [Compound 418],< 800
4,CCCCCCCOc1ccc(-c2cnc(-c3ccc(C[C@H](NC(=O)c4ccc(C(C)(C)C)s4)C(=O)N4CC[C@H](C(=O)NS(=O)(=O)CC(F)(F)F)C4)cc3)nc2)cc1 [Compound 887],< 800
5,CCCCCCCOc1ccc(-c2cnc(-c3ccc(C[C@H](NC(=O)c4ccc(C(C)(C)C)cc4)C(=O)NCC(=O)NCCC(=O)O)cc3)nc2)cc1 [Compound 445],< 800
6,CCc1ccc(-c2ccc(-c3cnc(-c4ccc(C[C@H](NC(=O)c5ccc(C(C)(C)C)s5)C(=O)N[C@H](C)C(=O)O)cc4)nc3)c(F)c2)cc1 [Compound 1173],< 800
7,CCCCCCCOc1ccc(-c2cnc(-c3ccc(C[C@H](NC(=O)c4ccc(C(C)(C)C)s4)C(=O)NCC(=O)NCC(=O)O)cc3)nc2)cc1 [Compound 486],< 800
8,CCCCCCCOc1ccc(-c2cnc(-c3ccc(C[C@H](NC(=O)c4ccc(C(C)(C)C)s4)C(=O)N(CC)CCO)cc3)nc2)cc1 [Compound 969],2500 to 5000
9,CCCCCCCOc1ccc(-c2cnc(-c3ccc(C[C@H](NC(=O)c4ccc(C(C)(C)C)cc4)C(=O)NCCC(=O)O)cc3)nc2)cc1F [Compound 697],2500 to 5000
10,CCCCCCCOc1ccc(-c2cnc(-c3ccc(C[C@H](NC(=O)c4ccc(C(C)(C)C)cc4)C(=O)NC(C(=O)O)C(O)c4ccccc4)cc3)nc2)cc1 (some centres unmarked) [Compound 570],< 800
11,CCCCCCCOc1ccc(-c2cnc(-c3ccc(C[C@H](NC(=O)c4ccc(C(C)(C)C)s4)C(=O)N[C@H](C(=O)O)C(C)c4ccccc4)cc3)nc2)cc1 (some centres unmarked) [Compound 899],2500 to 5000
12,CC(=O)c1ccccc1-c1ccc(-c2cnc(-c3ccc(C[C@H](NC(=O)c4ccc(C(C)(C)C)s4)C(=O)N4CC(C(=O)O)C4)cc3)nc2)c(F)c1 [Compound 1197],800 to 2500
13,CC(C)CCCCOc1ccc(-c2cnc(-c3ccc(C[C@H](NC(=O)c4ccc(C(C)(C)C)s4)C(=O)NC(C(=O)O)C(O)c4ccccc4)cc3)nc2)cc1 (some centres unmarked) [Compound 923],800 to 2500
14,CC(C)(C)COc1ccc(-c2cnc(-c3ccc(C[C@H](NC(=O)c4ccc(C(C)(C)C)cc4)C(=O)NCCC(=O)O)cc3)nc2)cc1 [Compound 680],5000 to 10000
15,CCCCCCCOc1ccc(-c2cnc(-c3ccc(CC(NC(=O)c4ccc(C(C)(C)C)s4)C(=O)Nc4cccc(C(=O)O)c4)cc3)nc2)cc1 (centres unmarked) [Compound 441],800 to 2500
16,CCCCCCCOc1ccc(-c2cnc(-c3ccc(C[C@H](NC(=O)c4ccc(OC(C)C)cc4)C(=O)NC(C(=O)O)C(O)c4ccccc4)cc3)nc2)cc1 (some centres unmarked) [Compound 950],800 to 2500
17,CCCCCCCOc1ccc(-c2cnc(-c3ccc(C[C@H](NC(=O)c4ccc(C(C)(C)C)s4)C(=O)N[C@@H](Cc4cccnc4)C(=O)O)cc3)nc2)cc1 [Compound 617],< 800
18,CCCCCCCOc1ccc(-c2cnc(-c3ccc(C[C@H](NC(=O)c4ccc(C(C)(C)C)s4)C(=O)N4CCC[C@H]4C(=O)N4CC[C@@H](C(=O)O)C4)cc3)nc2)cc1 [Compound 500],800 to 2500
19,CCCCCCCOc1ccc(-c2cnc(-c3ccc(C[C@H](NC(=O)c4cnc(C(C)(C)C)nc4)C(=O)N4CCC[C@H]4C(=O)O)cc3)nc2)cc1 [Compound 1078],2500 to 5000
20,CCCCCCCOc1ccc(-c2cnc(-c3ccc(C[C@H](NC(=O)c4ccc(C(C)(C)C)s4)C(=O)N[C@H](C(=O)O)[C@@H](C)c4ccccc4)cc3)nc2)cc1 [Compound 909],2500 to 5000
21,CCCCCCCOc1ccc(-c2cnc(-c3ccc(CC(NC(=O)c4ccc(C(C)(C)C)s4)C(=O)NCCCCCC(=O)O)cc3)nc2)cc1 (centres unmarked) [Compound 460],5000 to 10000
22,CCCCCCCOc1ccc(-c2cnc(-c3ccc(C[C@H](NC(=O)c4ccc(C(C)(C)C)s4)C(=O)N4CC(C(=O)NS(=O)(=O)CC(=O)O)C4)cc3)nc2)cc1 [Compound 649],800 to 2500
23,CCCCCCCOc1ccc(-c2cnc(-c3ccc(C[C@H](NC(=O)c4ccc(C(C)(C)C)cc4)C(=O)N[C@@H](Cc4ccc(O)cc4)C(=O)O)cc3)nc2)cc1 [Compound 451],< 800
24,CCCCCCCOc1ccc(-c2cnc(-c3ccc(C[C@H](NC(=O)c4ccc(C(C)(C)C)cc4)C(=O)N4CCC[C@@H](C(=O)O)[C@H]4C)cc3)nc2)cc1 [Compound 583],5000 to 10000
25,CCCCCCCOc1ccc(-c2cnc(-c3ccc(C[C@H](NC(=O)c4ccc(C(C)(C)C)s4)C(=O)NCCN)cc3)nc2)cc1 [Compound 384],5000 to 10000
26,CC1(C)CCC(c2ccc(-c3cnc(-c4ccc(C[C@H](NC(=O)c5ccc(C(C)(C)C)s5)C(=O)N5CC(C(=O)O)C5)cc4)nc3)cc2)CC1 [Compound 1088],< 800
